Measurements from patent publication US9974760B2, “Compositions and methods for treating cancer” (Chemo-Enhanced LLC, priority 2011, dated 2018).
“Also recorded” adds a separate entry of the source.

Experiments:
[1] = tested on: AMPK/ACC; assay: AMPK/ACC signaling in L3.6 cell line; assay type: cell-based; settings: for AMPK activation: taxol alone
From the text: The molecular mechanism involved in C6-ceramide induced chemosensitization effects was examined by focusing on taxol.
To further confirm the requirement of AMPK activation in this synergistic effect, siRNA directed against AMPK can be used.

[2] = tested on: ERK; assay: Western Blot of ERK activation in L3.6 cells; assay type: cell-based
Experimental: (§1) Pancreatic cancer cell lines L3.6 cells were left untreated or treated with gemcitabine (Gem, 1 μg/ml) or taxol (1.5 μg/ml) in the presence or absence of C6-ceramide (10 μg/ml) for 2, 4 and 6 hours, AKT/mTORC1 and ERK activation were detected by Western Blot using indicated antibodies (FIGS. 5A and 5C). p-AKT (S473) and p-ERK at 4 hour time intervals for each treatment quantified (FIGS. 5B and 5D). L3.6 cells were pretreated with various inhibitors including PI3K/AKT inhibitor LY 294002 (LY, 1 μM), mTORC1 inhibitor rapamycin (100 nM), MEK/ERK inhibitor U0126 (1 μg/ml) or gemcitabine (1 μg/ml) for 48 hours, cell death was detected 48 hours later (FIG. 5E).
(§2) As described in Cao et al. (2009) Sci. Signal, 2:RA17, aliquots of 30-40 μg of protein from each sample (treated as indicated in the legends) were separated by 10% SDS-polyacrylamide gel electrophoresis (SDS-PAGE) and transferred onto a polyvinylidene difluoride (PVDF) membrane (Millipore, Bedford, Mass.). After blocking with 10% instant nonfat dry milk for 1 hour, membranes were incubated with specific antibodies overnight at 4° C. followed by incubation with secondary antibodies (HRP-conjugated anti-rabbit or anti-mouse IgG at the appropriate dilutions) for 60 minutes to 1 hour at room temperature. Antibody binding was detected with the enhanced chemiluminescence (ECL) detection system (Amersham Biosciences, Piscataway, N.J.).

[3] = tested on: AKT/mTORC1; assay: Western Blot of AKT/mTORC1 activation in L3.6 cells; assay type: cell-based; settings: for PI3K/AKT/mTOR activation: Taxol alone
Experimental: as §1, §2

[4] = tested on: L3.6 pancreatic cancer cells; assay: Cell viability / cell death (MTT) in L3.6 pancreatic cancer cells; assay type: cell-based, human; settings: for cell death of L3.6 cells: 2.5 μg/ml C6-ceramide, 1.5 μg/ml taxol
Experimental: L3.6 pancreatic cancer cells, cultured either in the basic DMEM medium or with 10% FBS, were treated with the indicated doses of taxol in the presence or absence of C6-ceramide (10 μg/ml) for 48 hours and cell viability was detected by MTT assay (FIGS. 1A-1B). L3.6 cells, cultured either in basic DMEM medium or with 10% FBS, were treated with the indicated dose of C6-ceramide in the presence or absence of taxol (1.5 μg/ml) for 48 hours and cell viability was detected by MTT assay (FIGS. 1C-1D). Mitomycin C (10 μg/ml) was always present in the media to prevent cell proliferation from occurring. The data represents the mean±SD of at least triplicate experiments. *P<0.05 versus group without C6-ceramide presents (FIGS. 1A-1B). **P<0.05 versus group without taxol presents (FIGS. 1C-1D).
FIGS. 3A-3H show synergistic anti-tumor effects of C6-ceramide and gemcitabine in vivo and in vitro. SCID/Beige/Taconic nude male mice (22-25 g; 6-8 weeks old) were ear tagged and randomized into 4 different groups (Control, Ceramide, gemcitabine, Ceramide+gemcitabine) combining 5 mice each prior to inoculation subcutaneous (s.c.) with 2×10^6 L3.6 cells in a 0.1 ml volume into the internal surface of the right thigh. Treatment was started 4 days after L3.6 cell injection with thrice weekly (3×/wk) intraperitoneal (i.p.) injections of gemcitabine (two doses: 5.0 and 10.0 mg/ml) with or without C6-ceramide (10 mg/ml) for 2 weeks. Mouse survival (FIGS. 3A, 3B, and 3E) and tumor volume (in cm^3; FIGS. 3C and 3D) were recorded (FIG. 3E). Pancreatic cancer cell lines, including L3.6 cells (FIG. 3F), Panc-1 cells (FIG. 3G) and MIA-PaCa2 cells (MIA, FIG. 3H) were cultured in basic DMEM medium and were treated with gemcitabine (Gem, 1 μg/ml). Mitomycin C was always present in the media to prevent cell proliferation from occurring. The data represent the mean±SD of at least triplicate experiments. *P<0.05 versus group without C6-ceramide presents. The experiments were repeated at least three times and similar results were observed.
as §1, with “5E). The effects of the various inhibitors described above on AKT/mTORC1 and ERK activation were also detected by Western Blots using commercial available antibodies (FIG. 5F). *P<0.05 versus group without C6-ceramide presents. The experiments were repeated at least three times and similar results were observed.” for “5E).”
Cell viability was measured by the 3-[4m5-dimethylthylthiazol-2-y]-2.5 diphenyltetrazolium bromide (MTT) method, as described in Cao et al. (2009) Sci. Signal, 2:RA17. Briefly, the cells were collected and seeded in 96-well plate at a density of 2×10^5 cells/cm^2. Different seeding densities were optimized at the beginning of the experiments. After overnight incubation cells were exposed to fresh medium containing indicated reagents at 37° C. After incubation for different time periods, 20 ul of MTT tetrazolium (Sigma, St. Louis, Mo.) salt dissolved in Hank's balanced solution at a concentration of 5 mg/ml was added to each well and incubated in a CO2 incubator for an additional 4 hours. The medium was subsequently aspirated from each well and 150 ul of DMSO (Sigma, St. Louis, Mo.) was added to dissolve formazan crystals and the absorbance of each well was obtained using a Dynatech MR5000 plate reader at a test wavelength of 490 nm with a reference wavelength of 630 nm. […]

SMILES	effect on Taxol induced AMPK/ACC signaling (phosphorylation) ([1]; C6-ceramide added to taxol, L3.6 cell line)	ERK activation / signaling ([2]; L3.6 cells, Western Blot)	effect on taxol induced pro-survival PI3K/AKT/mTOR pathway ([3]; C6-ceramide added to taxol)	sensitization to cetuximab ([4]; L3.6 cells)	enhancement of paclitaxel induced cell death ([4]; L3.6 cells, dose dependent manner)	L3.6 cell death, agent alone ([4]; basic DMEM medium, MTT)	L3.6 cell death ([4]; cultured in 10% FBS)	cell death of L3.6 cells ([4]; cultured in 10% FBS)	AMPK activation ([1]; listed as Taxol)	AMPK activation ([1]; listed as taxol)	effect on C6-ceramide inhibition of ERK activation ([2]; added to C6-ceramide)	PI3K/AKT/mTOR activation [3]	PI3K/AKT/mTOR activation ([3]; listed as Taxol)	effect on C6-ceramide induced AKT de-phosphorylation or inhibition ([3]; added to C6-ceramide)	L3.6 cell death ([4]; basic DMEM medium, MTT, 48 hours, paclitaxel 1.5 μg/ml alone or combined with C6-ceramide)
CCCCCCCCCCCCC/C=C/[C@@H](O)[C@H](CO)NC(=O)CCCCC [C6-ceramide, N-hexanoyl-D-sphingosine]	enhancing; also recorded: dramatically enhances	induced moderate survival of AKT/mTORC1 and ERK activation; also recorded: inhibited	dramatically reduces	markedly sensitized	dramatically enhanced	limited effects	neither taxol or C6-ceramide alone had any meaningful effects	neither of these two alone had any measurable effect	–	–	–	–	–	–	–
CC(=O)O[C@H]1C(=O)[C@@]2(C)[C@H]([C@H](OC(=O)c3ccccc3)[C@]3(O)C[C@H](OC(=O)[C@H](O)[C@@H](NC(=O)c4ccccc4)c4ccccc4)C(C)=C1C3(C)C)[C@]1(OC(C)=O)CO[C@@H]1C[C@@H]2O [paclitaxel]	–	–	–	–	–	–	neither taxol or C6-ceramide alone had any meaningful effects	neither of these two alone had any measurable effect	strongly induce	moderate AMPK activation	enhanced	no effect	strongly induce	dramatically enhanced	less than 5%
